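Values below derive from 48-hour exposures of cells grown in 96-well plates, with endpoints linearly interpolated between the two concentrations bracketing the appropriate inhibition level. At the TGI there is no net growth.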
Tests used:
Assay in all cases: NCI anticancer screen, dose series, 48 h
A549 NSCLC = system: A549 NSCLC
ACHN renal = system: ACHN renal
CCRF-CEM leukemia = system: CCRF-CEM leukemia
COLO 205 colon = system: COLO 205 colon
DLD-1 colon = system: DLD-1 colon
HCC-2998 colon = system: HCC-2998 colon
HCT-116 colon = system: HCT-116 colon
HL-60(TB) leukemia = system: HL-60(TB) leukemia
HOP-62 NSCLC = system: HOP-62 NSCLC
HOP-92 NSCLC = system: HOP-92 NSCLC
HT29 colon = system: HT29 colon
IGROV1 ovarian = system: IGROV1 ovarian
K-562 leukemia = system: K-562 leukemia
KM12 colon = system: KM12 colon
LXFL 529 NSCLC = system: LXFL 529 NSCLC
M19-MEL melanoma = system: M19-MEL melanoma
MOLT-4 leukemia = system: MOLT-4 leukemia
NCI-H226 lung = system: NCI-H226 lung
NCI-H23 lung = system: NCI-H23 lung
NCI-H460 lung = system: NCI-H460 lung
NCI-H522 lung = system: NCI-H522 lung
OVCAR-3 ovarian = system: OVCAR-3 ovarian
OVCAR-8 ovarian = system: OVCAR-8 ovarian
RPMI-8226 leukemia = system: RPMI-8226 leukemia
SF-268 CNS = system: SF-268 CNS
SF-295 CNS = system: SF-295 CNS
SF-539 CNS = system: SF-539 CNS
SK-MEL-28 melanoma = system: SK-MEL-28 melanoma
SK-MEL-5 melanoma = system: SK-MEL-5 melanoma
SK-OV-3 ovarian = system: SK-OV-3 ovarian
SNB-19 CNS = system: SNB-19 CNS
SR leukemia = system: SR leukemia
SW-620 colon = system: SW-620 colon
TK-10 renal = system: TK-10 renal
U251 CNS = system: U251 CNS
UACC-257 melanoma = system: UACC-257 melanoma
UACC-62 melanoma = system: UACC-62 melanoma
UO-31 renal = system: UO-31 renal
786-0 renal = system: 786-0 renal
A498 renal = system: A498 renal
CAKI-1 renal = system: CAKI-1 renal
DMS 114 small cell lung = system: DMS 114 small cell lung
DMS 273 small cell lung = system: DMS 273 small cell lung
EKVX NSCLC = system: EKVX NSCLC
HCT-15 colon = system: HCT-15 colon
HOP-18 NSCLC = system: HOP-18 NSCLC
KM20L2 colon = system: KM20L2 colon
LOX IMVI melanoma = system: LOX IMVI melanoma
M14 melanoma = system: M14 melanoma
MALME-3M melanoma = system: MALME-3M melanoma
OVCAR-4 ovarian = system: OVCAR-4 ovarian
OVCAR-5 ovarian = system: OVCAR-5 ovarian
RXF 393 renal = system: RXF 393 renal
SK-MEL-2 melanoma = system: SK-MEL-2 melanoma
SN12C renal = system: SN12C renal
SNB-75 CNS = system: SNB-75 CNS
SNB-78 CNS = system: SNB-78 CNS
XF 498 CNS = system: XF 498 CNS

CCOC(=O)/C(C#N)=C1/Sc2c(ncn(/N=C/c3ccc(OC)cc3)c2=O)N1c1ccccc1
TGI (A549 NSCLC): > 100 µM | TGI (ACHN renal): > 100 µM | TGI (CCRF-CEM leukemia): > 100 µM | TGI (COLO 205 colon): > 100 µM | TGI (DLD-1 colon): > 100 µM | TGI (HCC-2998 colon): > 100 µM | TGI (HCT-116 colon): > 100 µM | TGI (HL-60(TB) leukemia): > 100 µM | TGI (HOP-62 NSCLC): 62.3 µM | TGI (HOP-92 NSCLC): 59 µM | TGI (HT29 colon): > 100 µM | TGI (IGROV1 ovarian): > 100 µM | TGI (K-562 leukemia): > 100 µM | TGI (KM12 colon): > 100 µM | TGI (LXFL 529 NSCLC): > 100 µM | TGI (M19-MEL melanoma): > 100 µM | TGI (MOLT-4 leukemia): > 100 µM | TGI (NCI-H226 lung): > 100 µM | TGI (NCI-H23 lung): > 100 µM | TGI (NCI-H460 lung): > 100 µM | TGI (NCI-H522 lung): > 100 µM | TGI (OVCAR-3 ovarian): > 100 µM | TGI (OVCAR-8 ovarian): > 100 µM | TGI (RPMI-8226 leukemia): > 100 µM | TGI (SF-268 CNS): 77.7 µM | TGI (SF-295 CNS): 76.2 µM | TGI (SF-539 CNS): 34.8 µM | TGI (SK-MEL-28 melanoma): 81.5 µM | TGI (SK-MEL-5 melanoma): > 100 µM | TGI (SK-OV-3 ovarian): > 100 µM | TGI (SNB-19 CNS): > 100 µM | TGI (SR leukemia): > 100 µM | TGI (SW-620 colon): > 100 µM | TGI (TK-10 renal): > 100 µM | TGI (U251 CNS): > 100 µM | TGI (UACC-257 melanoma): > 100 µM | TGI (UACC-62 melanoma): > 100 µM | TGI (UO-31 renal): > 100 µM

CSc1ccc(OCC2OC2O)cc1 (centres undefined)
TGI (786-0 renal): > 100 µM | TGI (A498 renal): > 100 µM | TGI (A549 NSCLC): > 100 µM | TGI (ACHN renal): > 100 µM | TGI (CAKI-1 renal): > 76.6 µM | TGI (CCRF-CEM leukemia): > 100 µM | TGI (COLO 205 colon): 35.5 µM | TGI (DLD-1 colon): > 100 µM | TGI (DMS 114 small cell lung): 86.3 µM | TGI (DMS 273 small cell lung): > 100 µM | TGI (EKVX NSCLC): > 100 µM | TGI (HCC-2998 colon): > 100 µM | TGI (HCT-116 colon): 36.9 µM | TGI (HCT-15 colon): > 54.2 µM | TGI (HL-60(TB) leukemia): > 83.5 µM | TGI (HOP-18 NSCLC): > 100 µM | TGI (HOP-62 NSCLC): > 100 µM | TGI (HOP-92 NSCLC): > 100 µM | TGI (HT29 colon): > 90.9 µM | TGI (IGROV1 ovarian): > 100 µM | TGI (K-562 leukemia): > 100 µM | TGI (KM12 colon): > 95.9 µM | TGI (KM20L2 colon): > 100 µM | TGI (LOX IMVI melanoma): > 31.6 µM | TGI (LXFL 529 NSCLC): > 100 µM | TGI (M14 melanoma): > 100 µM | TGI (M19-MEL melanoma): > 100 µM | TGI (MALME-3M melanoma): > 100 µM | TGI (MOLT-4 leukemia): > 75.5 µM | TGI (NCI-H226 lung): > 100 µM | TGI (NCI-H23 lung): > 100 µM | TGI (NCI-H460 lung): > 100 µM | TGI (NCI-H522 lung): > 81.6 µM | TGI (OVCAR-3 ovarian): > 100 µM | TGI (OVCAR-4 ovarian): > 100 µM | TGI (OVCAR-5 ovarian): > 100 µM | TGI (OVCAR-8 ovarian): > 100 µM | TGI (RPMI-8226 leukemia): 99.5 µM | TGI (RXF 393 renal): > 100 µM | TGI (SF-295 CNS): > 100 µM | TGI (SF-539 CNS): > 100 µM | TGI (SK-MEL-2 melanoma): > 100 µM | TGI (SK-MEL-5 melanoma): 35.6 µM | TGI (SK-OV-3 ovarian): > 100 µM | TGI (SN12C renal): > 100 µM | TGI (SNB-19 CNS): > 100 µM | TGI (SNB-75 CNS): > 100 µM | TGI (SNB-78 CNS): > 100 µM | TGI (SR leukemia): > 100 µM | TGI (SW-620 colon): > 30.7 µM | TGI (TK-10 renal): > 100 µM | TGI (U251 CNS): > 100 µM | TGI (UACC-257 melanoma): > 100 µM | TGI (UACC-62 melanoma): > 100 µM | TGI (UO-31 renal): > 100 µM | TGI (XF 498 CNS): 78.7 µM
